Molecules are shown by their SMILES. Converted amounts (≈) assume the structure as drawn. Where two headings read alike, the source gives them in different places.

A short description of data set [1]: Thermodynamic solubility measurements. It counts as physicochemical. The following applies: aqueous buffer, pH 7, aqueous buffer, thermodynamic from solid. Here is the method: Approximately 1 mg of test compound was weighed into 1.5 mL Eppendorf tubes and 1.5 mL of aqueous buffer of a given pH was added. The samples were vortexed and placed on a shaker at 150 RPM for 2-5 days. The samples were harvested and then centrifuged at 12 K RPM for 20 minutes. The supernatant was diluted twice with Acetonitrile (ACN) and analyzed by UPLC. To dilute the samples, 200 uL of supernatant was taken and discarded. Then, 400 uL of supernatant (with 200 uL intervals) was taken and added to 400 uL of acetonitrile (with 200 uL intervals).
UPLC conditions: Mobile Phase A: 0.1% TFA in Water; Mobile Phase B: 0.1% TFA in Acetonitrile; Column: Acquity BEH C18, 1.7 um, 2.1×50 mm; Injection Volume: 2-3 uL; Autosampler Temperature: Ambient; Column Temperature: 25° C.; Run Time: 10 minutes; Flow Rate: 0.45 mlJmin; Collected Wavelengths: 220 nm, 245 nm, 254 nm, 280 nm, PDA Spectrum (190-400 nm); Wavelength Used for Analysis: 254 nm

Data set [2] has as its target T1, soluble guanylate cyclase (sGC) (Homo sapiens, UniProt Q02108+Q02153).
T1 construct: endogenously expressing soluble guanylate cyclase (sGC); endogenous in cells; host or cells: HEK293
T1 sequence (Q02153 1-619): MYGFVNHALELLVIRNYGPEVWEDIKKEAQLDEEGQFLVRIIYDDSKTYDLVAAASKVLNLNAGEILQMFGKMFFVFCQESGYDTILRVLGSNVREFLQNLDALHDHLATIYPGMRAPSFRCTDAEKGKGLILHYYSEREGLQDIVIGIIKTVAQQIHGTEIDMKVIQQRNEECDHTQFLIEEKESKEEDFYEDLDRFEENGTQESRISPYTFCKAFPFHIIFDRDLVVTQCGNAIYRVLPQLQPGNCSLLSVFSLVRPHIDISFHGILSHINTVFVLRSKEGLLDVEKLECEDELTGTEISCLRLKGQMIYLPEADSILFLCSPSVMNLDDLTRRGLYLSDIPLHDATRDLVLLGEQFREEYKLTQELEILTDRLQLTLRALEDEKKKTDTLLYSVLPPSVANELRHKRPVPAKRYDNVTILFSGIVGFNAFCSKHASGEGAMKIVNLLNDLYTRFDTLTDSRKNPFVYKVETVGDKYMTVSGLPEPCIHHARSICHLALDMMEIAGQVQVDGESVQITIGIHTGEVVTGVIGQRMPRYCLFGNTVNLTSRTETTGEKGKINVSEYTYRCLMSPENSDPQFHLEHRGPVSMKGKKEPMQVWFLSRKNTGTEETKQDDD
T1 sequence (Q02108 1-690): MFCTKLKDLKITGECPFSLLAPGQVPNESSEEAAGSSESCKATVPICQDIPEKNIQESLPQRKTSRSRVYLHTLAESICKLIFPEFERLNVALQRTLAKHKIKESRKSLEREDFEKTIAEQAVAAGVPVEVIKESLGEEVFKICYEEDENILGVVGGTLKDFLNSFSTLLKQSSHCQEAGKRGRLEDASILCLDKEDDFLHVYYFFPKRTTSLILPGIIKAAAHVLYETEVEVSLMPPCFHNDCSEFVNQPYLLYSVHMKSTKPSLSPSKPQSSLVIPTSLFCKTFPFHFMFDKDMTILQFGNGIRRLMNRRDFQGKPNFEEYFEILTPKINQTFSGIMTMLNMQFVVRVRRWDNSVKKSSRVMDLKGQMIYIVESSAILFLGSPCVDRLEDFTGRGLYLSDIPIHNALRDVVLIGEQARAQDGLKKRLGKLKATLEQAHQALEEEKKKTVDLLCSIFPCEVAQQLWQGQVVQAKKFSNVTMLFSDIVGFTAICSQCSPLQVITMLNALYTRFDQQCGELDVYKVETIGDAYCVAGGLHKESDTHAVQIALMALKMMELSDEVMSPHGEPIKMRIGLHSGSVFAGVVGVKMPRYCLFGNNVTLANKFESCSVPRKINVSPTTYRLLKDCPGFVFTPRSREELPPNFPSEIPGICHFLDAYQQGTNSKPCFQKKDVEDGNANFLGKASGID
The experiment in a line: sGC-HEK-cGMP assay with LC/MS detection. It counts as cell-based. The following applies: for EC50: HEK293 cells, 10 μM DETA-NONOate, cGMP by LC/MS, read-out: Absolute EC50; for sGC agonism as compared to parent drug: HEK assay with LC/MS detection. Here is the method:
Human embryonic kidney cells (HEK293), endogenously expressing soluble guanylate cyclase (sGC), were used to evaluate the activity of test compounds. Compounds stimulating the sGC enzyme should cause an increase in the intracellular concentration of cGMP. HEK 293 cells were seeded in Dulbecco's Modification of Eagle's Medium supplemented with fetal bovine serum (10% final) and penicillin (100 U/mL)/streptomycin (100 μg/mL) in a 50 μL volume at a density of 1.5×10^4 cells/well in a poly-D-lysine coated 384 well flat bottom plate. Cells were incubated overnight at 37° C. in a humidified chamber with 5% CO2. Medium was aspirated and cells were washed with 1×Hank's Buffered Saline Salt Solution (50 μL). Cells were then incubated for 15 minutes at 37° C. with 50 μL of a 0.5 mM 3-isobutyl-1-methylxanthine (IBMX) solution. The test article and Diethylenetriamine NONOate (DETA-NONOate) solutions (x μM concentration for test article solution and 10 μM concentration for DETA-NONOate solution; wherein x is one of the following concentrations)
were then added to the assay mixture and the resulting mixture was incubated at 37° C. for 20 minutes. After the 20 minute incubation, the assay mixture was aspirated and 10% acetic acid containing 150 ng/mL+3-cGMP (internal standard for LCMS) (50 μL) was added to the cells. The plate was incubated at 4° C. for 30 minutes in the acetic acid solution to stop the reaction and lyse the cells. The plates were then centrifuged at 1,000 g for 3 minutes at 4° C. and the supernatant transferred to a clean reaction plate for LCMS analysis.
cGMP concentrations were determined from each sample using the LCMS conditions below (Table 2) and calculated standard curve. The standard curve was prepared in 10% acetic acid with 150 ng/mL+3cGMP (isotopically labelled cGMP with a weight 3 units higher than wild type) with the following final concentrations of cGMP in ng/mL: 1, 5, 10, 50, 100, 250, 500, 1000, 2000.
Data were normalized to a high control using the following equation: 100*(Sample−Low Control)/(High Control−Low Control), where the low control is the average of 16 samples treated with 1% DMSO, and the high control is the average of 16 samples treated with 30 μM of Compound Y depicted below. Data were fit using a 4-parameter fit (log(agonist) vs. response—variable slope) using GraphPad Prism Software v.5. n=2 for all compounds. The Absolute EC50 was interpolated from the curve fit and is defined as the concentration at which a given compound elicits 50% of the high control response. Compounds failing to elicit a minimum response of 50% are reported as >30 μM. For compounds run in duplicate or n higher than 2, the result herein given is the geometric mean of the several results obtained.
sGC enzyme activity values in HEK cells, expressed as Absolute EC50 which is defined as the concentration at which a given compound elicits 50% of the high control response obtained with Compound Y, after normalization.

In turn, `O=P(O)(O)OC(CNc1nc(-c2cc(-c3ccon3)n(Cc3ccccc3F)n2)ncc1F)(C(F)(F)F)C(F)(F)F` [Compound I-1] registered a solubility in data set [1] of 66 to 1000 µg/mL (≈ 107 to 1630 µM). Moreover, the EC50 in data set [2] (prodrug) amounted to 13 µM. In data set [2], the “sGC agonism as compared to parent drug” value is on record as “did not exhibit a high degree of sGC agonism”.

Regarding `O=P(O)(O)OCOC(CNc1nc(-c2cc(-c3ccon3)n(Cc3ccccc3F)n2)ncc1F)(C(F)(F)F)C(F)(F)F` [Compound I-4], the solubility in data set [1] was 71 µg/mL (≈ 110 µM). Also, in data set [2] (prodrug), the EC50 was 25 µM. The “sGC agonism as compared to parent drug” value in data set [2] is reported as “did not exhibit a high degree of sGC agonism”.

In the case of `OC(CNc1nc(-c2cc(-c3ccon3)n(Cc3ccccc3F)n2)ncc1F)(C(F)(F)F)C(F)(F)F` [Intermediate 3], the solubility in data set [1] was in the range of 2 to 3 µg/mL (≈ 3.74 to 5.61 µM). The EC50 in data set [2] (Parent compound column) was determined as 0.22 µM.

By solubility is commonly meant how much of the substance goes into solution per volume. A word on the EC50: it is the midpoint of the concentration-response curve.

The record behind these values is patent publication US10927136B2, “Phosphorus prodrugs of pyrazolo-substituted pyrimidine sGC stimulators” (Cyclerion Therapeutics, Inc., priority 2016, dated 2021).
